In PubChem BioAssay (NCI):
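Each compound was tested at five concentrations against cells in 96-well plates for 48 hours. Here, GI50 denotes the concentration required for 50% inhibition of growth. TGI: concentration producing complete growth inhibition.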

Assays:
Test in all cases: NCI tumour cell line growth inhibition, 48 h
DMS 114 small cell lung = tested on: DMS 114 small cell lung
LXFL 529 NSCLC = tested on: LXFL 529 NSCLC
RXF-631 renal = tested on: RXF-631 renal
HOP-18 NSCLC = tested on: HOP-18 NSCLC
XF 498 CNS = tested on: XF 498 CNS
KM20L2 colon = tested on: KM20L2 colon
DMS 273 small cell lung = tested on: DMS 273 small cell lung
SNB-78 CNS = tested on: SNB-78 CNS
MDA-N = tested on: MDA-N

## Cc1ccc(NC(=O)CC/C(CC(=O)C(C)(C)C)=N/NC(=O)C(N)=O)cc1C
DMS 114 small cell lung
  TGI: > 100 µM
LXFL 529 NSCLC
  TGI: > 100 µM
RXF-631 renal
  TGI: > 100 µM
HOP-18 NSCLC
  TGI: > 100 µM
XF 498 CNS
  TGI: > 100 µM
KM20L2 colon
  TGI: > 100 µM
DMS 273 small cell lung
  TGI: > 100 µM
SNB-78 CNS
  TGI: > 100 µM

## CCNC(C)(C)C(SS)c1ccc(Br)cc1 (centres undefined)
MDA-N
  TGI: > 100 µM

## CN(C)c1ccc2c(c1)CN1C(=O)c3ccccc3C1=N2
DMS 114 small cell lung
  GI50: > 100 µM
  TGI: > 100 µM
LXFL 529 NSCLC
  GI50: > 100 µM
  TGI: > 100 µM
HOP-18 NSCLC
  GI50: 6.02 µM
  TGI: > 100 µM
XF 498 CNS
  GI50: > 100 µM
  TGI: > 100 µM
DMS 273 small cell lung
  GI50: > 100 µM
  TGI: > 100 µM
SNB-78 CNS
  GI50: > 100 µM
  TGI: > 100 µM

## CC[C@@]1(OC(=O)CN)C(=O)OCc2c1cc1n(c2=O)Cc2cc3cc4c(cc3nc2-1)OCO4
MDA-N
  GI50: < 0.01 µM
  TGI: 2.27 µM

## COc1ccc(C2=Nc3ccccc3SC(C)C2)cc1 (centres undefined)
DMS 114 small cell lung
  TGI: > 100 µM
LXFL 529 NSCLC
  TGI: > 100 µM
RXF-631 renal
  TGI: > 100 µM
KM20L2 colon
  TGI: > 100 µM
DMS 273 small cell lung
  TGI: > 100 µM
SNB-78 CNS
  TGI: > 100 µM

## CC(=O)[CH-]C(=O)c1ccccc1.CC(=O)[CH-]C(=O)c1ccccc1.COc1cccc([O-])c1[O-].[Ti+4]
LXFL 529 NSCLC
  GI50: 34.3 µM
  TGI: > 100 µM
HOP-18 NSCLC
  GI50: 25.9 µM
  TGI: 63.5 µM
KM20L2 colon
  GI50: 52.2 µM
  TGI: > 100 µM

## N#CCCN(CCC#N)C(=O)c1cccc(C(=O)N(CCC#N)CCC#N)c1
DMS 114 small cell lung
  TGI: > 100 µM
LXFL 529 NSCLC
  TGI: 19.2 µM
XF 498 CNS
  TGI: > 100 µM
KM20L2 colon
  TGI: > 63.8 µM
DMS 273 small cell lung
  TGI: > 100 µM
SNB-78 CNS
  TGI: > 100 µM

## CCC1=C(C)/C(=C/c2[nH]c(C(Br)Br)c(CC)c2C)N=C1C(Br)Br
DMS 114 small cell lung
  TGI: 88.6 µM
LXFL 529 NSCLC
  TGI: > 100 µM
HOP-18 NSCLC
  TGI: > 100 µM
KM20L2 colon
  TGI: > 100 µM
SNB-78 CNS
  TGI: > 100 µM

## CNC(=S)N/N=C1\CC(c2ccccc2)Oc2ccccc21 (centres undefined)
LXFL 529 NSCLC
  TGI: > 100 µM
DMS 273 small cell lung
  TGI: > 100 µM
SNB-78 CNS
  TGI: > 100 µM

## COc1cc2ccccc2c2cc([N+](=O)[O-])oc12
MDA-N
  TGI: 0.849 µM

## COc1ccc(C(C#N)NC23CC4CC(CC(C4)C2)C3)cc1OC (centres undefined)
MDA-N
  TGI: > 100 µM

## CC(N=C(N)N)C(=O)O (centres undefined)
MDA-N
  TGI: > 100 µM

## [N-]=[N+]=Nc1ccc(CCN2CCN(c3cccc(C(F)(F)F)c3)CC2)cc1I
LXFL 529 NSCLC
  TGI: > 100 µM
KM20L2 colon
  TGI: > 100 µM
DMS 273 small cell lung
  TGI: > 100 µM
SNB-78 CNS
  TGI: > 100 µM

## N#CNC(N)=NCCO
DMS 114 small cell lung
  TGI: > 100 µM
LXFL 529 NSCLC
  TGI: > 100 µM
RXF-631 renal
  TGI: > 100 µM
HOP-18 NSCLC
  TGI: > 100 µM
XF 498 CNS
  TGI: > 100 µM
KM20L2 colon
  TGI: > 100 µM
DMS 273 small cell lung
  TGI: > 100 µM
SNB-78 CNS
  TGI: > 100 µM

## COc1cc(=O)oc(/C=C/C=O)c1C
DMS 114 small cell lung
  TGI: 26.3 µM
LXFL 529 NSCLC
  TGI: 32.4 µM
RXF-631 renal
  TGI: 27.9 µM
HOP-18 NSCLC
  TGI: 37.5 µM
XF 498 CNS
  TGI: 32.4 µM
KM20L2 colon
  TGI: 30.8 µM
DMS 273 small cell lung
  TGI: 32.8 µM

## [C-]#[O+].[Cl][Sn]([Cl])[Cl].[Cl][Sn]([Cl])[Cl].[Pt].c1ccc([PH+](c2ccccc2)c2ccccc2)cc1.c1ccc([PH+](c2ccccc2)c2ccccc2)cc1
DMS 114 small cell lung
  GI50: 21.8 µM
  TGI: 51.2 µM
LXFL 529 NSCLC
  GI50: 23.2 µM
  TGI: 82.1 µM
HOP-18 NSCLC
  GI50: 25.3 µM
  TGI: 90 µM
KM20L2 colon
  GI50: > 100 µM
  TGI: > 100 µM
DMS 273 small cell lung
  GI50: 46.1 µM
  TGI: > 100 µM
SNB-78 CNS
  GI50: > 100 µM
  TGI: > 100 µM

## COc1ccc(CN2C(=O)C(Cc3cc(OC)c(OC)c(C)c3OC)NC(=O)/C2=C/c2cc(OC)c(OC)c(C)c2OC)cc1 (centres undefined)
DMS 114 small cell lung
  TGI: 97.3 µM
LXFL 529 NSCLC
  TGI: > 100 µM
RXF-631 renal
  TGI: > 100 µM
HOP-18 NSCLC
  TGI: 65.2 µM
KM20L2 colon
  TGI: 59.2 µM

## O=C(Cc1nc2ccccc2c(=O)n1-c1c(Cl)cccc1Cl)c1ccncc1
DMS 114 small cell lung
  TGI: 78.6 µM
LXFL 529 NSCLC
  TGI: > 100 µM
RXF-631 renal
  TGI: 63.3 µM
HOP-18 NSCLC
  TGI: 93.1 µM
KM20L2 colon
  TGI: 85.9 µM
DMS 273 small cell lung
  TGI: 40.6 µM
SNB-78 CNS
  TGI: > 100 µM

## O=C1c2ccccc2NC(c2cc(Cl)cc(Cl)c2O)N1CCc1ccccn1 (centres undefined)
MDA-N
  TGI: > 100 µM

## CC1(C)OC(=O)[C@@](C)([C@H](O)c2ccccc2)O1
DMS 114 small cell lung
  TGI: > 100 µM
LXFL 529 NSCLC
  TGI: > 100 µM
RXF-631 renal
  TGI: > 100 µM
XF 498 CNS
  TGI: > 100 µM
KM20L2 colon
  TGI: > 100 µM
DMS 273 small cell lung
  TGI: > 100 µM
SNB-78 CNS
  TGI: > 100 µM

## COC(=O)CCC(C)[C@H]1CCC2C3C(C[C@H](OC(C)=O)[C@@]21C)[C@@]1(C)CCC2(C[C@H]1C[C@H]3OC(C)=O)OOC1(CCC(C)CC1)OO2 (some centres undefined)
MDA-N
  TGI: > 100 µM

## C[C@@H](C1CCC2C3C(=CC(=O)[C@@]21C)[C@H](C)[C@]1(CCC(=O)O1)C1OC31)[C@H]1C[C@]2(C)O[C@@](C)(O1)OC2(C)C (some centres undefined)
DMS 114 small cell lung
  TGI: > 100 µM
LXFL 529 NSCLC
  TGI: > 100 µM
RXF-631 renal
  TGI: > 100 µM
HOP-18 NSCLC
  TGI: > 100 µM
XF 498 CNS
  TGI: > 100 µM
KM20L2 colon
  TGI: > 100 µM
DMS 273 small cell lung
  TGI: > 100 µM

## CC(C)(C)N/N=C(\Cc1occc(=O)c1O)C(=O)Nc1ccc([N+](=O)[O-])cc1[N+](=O)[O-]
DMS 114 small cell lung
  TGI: > 100 µM
LXFL 529 NSCLC
  TGI: > 100 µM
RXF-631 renal
  TGI: > 100 µM
HOP-18 NSCLC
  TGI: > 100 µM
XF 498 CNS
  TGI: > 100 µM
KM20L2 colon
  TGI: > 100 µM
DMS 273 small cell lung
  TGI: > 100 µM
SNB-78 CNS
  TGI: > 100 µM

## CC(C)N(C(=O)C12C3C4C5C3C1(C(=O)N(C(C)C)C(C)C)C5(C#N)C42)C(C)C (centres undefined)
DMS 114 small cell lung
  TGI: > 100 µM
LXFL 529 NSCLC
  TGI: > 100 µM
RXF-631 renal
  TGI: > 100 µM
HOP-18 NSCLC
  TGI: > 100 µM
XF 498 CNS
  TGI: > 100 µM
KM20L2 colon
  TGI: > 100 µM
DMS 273 small cell lung
  TGI: > 100 µM
SNB-78 CNS
  TGI: > 100 µM

## Cc1c(C(=O)CC(=O)C(=O)Nc2c(C(C)C)cccc2C(C)C)[n+](=O)c2ccccc2n1[O-]
DMS 114 small cell lung
  TGI: 6.41 µM
LXFL 529 NSCLC
  TGI: 23.4 µM
RXF-631 renal
  TGI: 14.4 µM
XF 498 CNS
  TGI: 15 µM
KM20L2 colon
  TGI: 15.9 µM
DMS 273 small cell lung
  TGI: 12.1 µM
SNB-78 CNS
  TGI: 41.3 µM
